The text below walks through data of patent publication US9962350B2, “Agent for improving normal development rate of fertilized eggs” (SBI Pharmaceuticals Co., Ltd., priority 2014, dated 2018).

The test system of the assay is fertilized eggs of the C57BL/6J lineage. Kind of assay: In vitro culture of natural mating-derived fertilized eggs in M16 medium supplemented with ALA; embryo development. The class given is cell-based, mouse. The settings on record: 37° C. An excerpt:
The female mice used to harvest fertilized eggs were female mice of the C57BL/6J lineage (21 weeks old to 27 weeks old, body weight: 21.0 to 24.5 g). The male mice used for mating were male mice of the C57BL/6J lineage (32 to 38 weeks old, body weight: 30.0 to 35.5 g). According to a routine method of controlled ovarian hyperstimulation, 5 U (units) of equine chorionic gonadotropin (serum gonadotrophin) (manufactured by ASKA Pharmaceutical Co., Ltd.) were intraperitoneally administered to each female mouse. 45 to 48 hours later, 5 U (units) of gonadotropin (human chorionic gonadotropin) (manufactured by ASKA Pharmaceutical Co., Ltd.) were intraperitoneally administered to each female mouse. Immediately after the administration of gonadotropin, each female mouse was mated with each male mouse described above.
On the next day, the presence or absence of a milky resin-like vaginal plug was determined for the mated female mice, and the oviducts were harvested from the female mice confirmed to have the vaginal plug. The harvested oviducts were left standing in physiological saline (0.9% (w/v) NaCl) for approximately 15 minutes and then transferred into M16 medium supplemented with approximately 300 μg/mL of hyaluronidase (manufactured by Sigma-Aldrich Corp.) for cumulus cell removal treatment. The oviducts were incised, and fertilized eggs were isolated and left standing at 37° C. for 5 to 10 minutes in a CO2 incubator. Then, the fertilized eggs separated from the cumulus cells were recovered and washed with hyaluronidase-unsupplemented M16 medium to remove hyaluronidase. The resulting cumulus cell-free fertilized eggs were left standing at 37° C. in a CO2 incubator.
Aside therefrom, a drop of 100 μL of M16 medium covered with mineral oil (manufactured by Sigma-Aldrich Corp.) and supplemented with ALA hydrochloride (manufactured by SBI Pharmaceuticals Co., Ltd.) at a final concentration of 0 μM (control), 0.1 μM, 0.5 μM, or 1 μM was prepared in a 35 mm Petri dish and left standing at 37° C. in a CO2 incubator. 29 or 30 of the cumulus cell-free fertilized eggs were transferred to the resulting drop and cultured in vitro at 37° C. in a CO2 incubator.
After a lapse of 24 hours, 48 hours, 72 hours, and 96 hours from the start of the in vitro culture (0 hours) in the drop, the developmental stage of each embryo was determined by observation under a stereoscopic microscope, and the number of embryos whose development progressed normally and change in development rate were calculated. Specifically, the number of 2-cell eggs 24 hours after the start of the culture, the number of 3-cell, 4-cell, and 8-cell eggs 48 hours thereafter, the number of morulae and blastocysts 72 hours thereafter, and the number of blastocysts 96 hours thereafter were counted as embryos whose development progressed normally at each stage. The development rate with the number of fertilized eggs (0 hours) defined as 100% is shown in Table 3 and the graph of FIG. 1. For the evaluation of the development rate, the percentage of the number of embryos whose development progressed normally 24 hours, 48 hours, 72 hours, and 96 hours after the start of the culture was calculated with the number of fertilized eggs (0 hours) defined as 100%, and used as a normal development rate. Because of the natural mating, the number of recovered fertilized eggs (0 hours) includes unfertilized eggs to some extent, and there is the possibility that the content of unfertilized eggs varies accidentally among fertilized eggs (0 hours) populations distributed to the respective condition groups even if the fertilized eggs (0 hours) populations have been recovered in the same experiment. The development rate calculated with the number of 2-cell embryos 24 hours postfertilization defined as 100% was calculated in order to eliminate the influence of the content of unfertilized eggs that varies accidentally among the respective condition groups. […]

Take `NCC(=O)CCC(=O)O` [ALA, 5-aminolevulinic acid]: the “The number of developed embryos” value runs as follows: (0.1 μM ALA, 24 hr) 22; (0.1 μM ALA, 48 hr) 19; (0.1 μM ALA, 72 hr) 14; (0.1 μM ALA, 96 hr) 7; (0.5 μM ALA, 24 hr) 24; (0.5 μM ALA, 48 hr) 21. The “The number of developed embryos” value reads like this: (0.5 μM ALA, 72 hr) 14; (0.5 μM ALA, 96 hr) 13; (1 μM ALA, 24 hr) 19; (1 μM ALA, 48 hr) 19; (1 μM ALA, 72 hr) 15; (1 μM ALA, 96 hr) 13. Also, the “development rate with the number of fertilized eggs (0 hr) defined as 100%” value stood at 73% (0.1 μM ALA, 24 hr); 63% (0.1 μM ALA, 48 hr); 83% (0.5 μM ALA, 24 hr); 72% (0.5 μM ALA, 48 hr); 66% (1 μM ALA, 24 hr); 66% (1 μM ALA, 48 hr). Besides, the “development rate with the number of 2-cell embryos 24 hours postfertilization defined as 100%” value (0.1 μM ALA, 48 hr) came to 86%; the “development rate with the number of 2-cell embryos 24 hours postfertilization defined as 100%” value (0.1 μM ALA, 72 hr) is 64%; the “development rate with the number of 2-cell embryos 24 hours postfertilization defined as 100%” value (0.5 μM ALA, 48 hr) was 88%; the “development rate with the number of 2-cell embryos 24 hours postfertilization defined as 100%” value (0.5 μM ALA, 72 hr) amounted to 58%; the “development rate with the number of 2-cell embryos 24 hours postfertilization defined as 100%” value (1 μM ALA, 48 hr) came out at 100%.
